Several values for one entry are separate records, joined by “and”; a condition that tells them apart may be missing. Identical values can stand only once.
Columns and labels:
[1] = tested on: K562 leukemia cells; test: Cytotoxicity on tumor cell cultures (resazurin, 48 h); format: cell-based; settings: Homo sapiens, K562, 48 h
Description: (§1) The total well volume was 150 μl.

[2] = tested on: SH-SY5Y neuroblastoma cells; test: as above; format: cell-based; settings: Homo sapiens
Description: as §1

[3] = tested on: HL60 leukemia cells; test: as above; format: cell-based; settings: Homo sapiens, HL-60; HL60, 48 h
Description: as §1

[4] = tested on: SH-SY5Y, K-562, HL-60, GBM5522 cells; test: Cytotoxicity screening, summary over the cancer cell panel; format: cell-based
Description: as §1
Cytotoxicity screening of the synthesized indazole derivatives was performed on the cell line of neuroblastoma SH-SY5Y, lymphoblastic cells K-562, promyeloblastic cells HL-60, low-passage variant of highly differentiated multiform glioblastoma GBM5522 (Table 2).

[5] = tested on: M. tuberculosis H37Rv; test: Bacteriostatic activity, proportion method, BACTEC MGIT 960, Middlebrook 7H9; format: cell-based, Mycobacterium tuberculosis; settings: Mycobacterium tuberculosis, H37RV
[6] = tested on: influenza virus A/California/7/2009 (H1N1)pdm09; test: microbe, parasite or virus in culture; format: cell-based, human influenza virus A
[7] = tested on: GBM5522 low-passage primary glioblastoma multiforme cells; test: Cytotoxicity on tumor cell cultures (resazurin, 48 h); settings: 48 h
Description: The low-passage primary glioblastoma multiforme cell culture GBM5522 was previously described [37]. Cells were cultured in DMEM (Servicebio) containing 10% fetal bovine serum (FBS) at 37°C in an atmosphere of 5% CO2. The cells were plated in 96-well plates at a density of 1x10^4 cells/well. The test substances were then added in concentrations ranging from 0.8 to 100 μM. DMSO at a concentration of 1% was used as a control, corresponding to the percentage of DMSO when the highest concentration of the drug was added. The total well volume was 150 μl. The cells were incubated for 48 hours at 37°C in a 5% CO2 atmosphere. Resazurin was added in a concentration of 10 μl of a 0.5 mg/mL solution in phosphate-buffered saline. The incubation was carried out under the same conditions for 4 hours, and then the fluorescence level was measured at an excitation wavelength of 560 nm and an emission wavelength of 590 nm using a CLARIOstar multimodal microplate reader (BMG Labtech, Germany). The data obtained for each concentration were normalized to the control, and the IC50 was calculated using the nonlinear regression method. The minimum number of repetitions for each concentration was three. The GraphPad Prism software v.9.5.1 (GraphPad Software, San Diego, USA) was used to calculate the IC50 and plot the percentage of living cells versus the concentration of the drug.

[8] = Cytotoxic effect in MDCK cell culture (MTS); format: cell-based; settings: dog
Description: Multiple dilutions of solutions of all compounds were prepared in 24-well plates by titration into 8 wells, starting from a dilution of 1:10 to 1:1280. The resulting serial dilutions were transferred to the wells of the test plates with cells. Each point was tested in 4 parallel wells. The working medium was added to the wells of the cell control. […] Then, the culture medium was removed from the plates, and 100 μL of the medium and 20 μL of the MTS solution were added to the cell culture monolayer in each well. After incubation for 3 hours at 37°C, the results were recorded on a BIO-RAD automatic reader at a wavelength of 490 nm. Reference filter - 630 nm.
To obtain statistically reliable results, the experiments were performed 2-3 times. The values of CC50 and IC50 were calculated using generally accepted methods for biological research, as implemented in the Microsoft Excel 5.0 and GraphPad Prism 6.01 software packages. The working model for CC50 analysis was a 4-parameter logistic curve equation (menu items “Nonlinear regression” - “Sigmoidal dose-response (variable slope)”). For IC50 analysis, a 4-parameter logistic curve equation was adopted (menu items “Nonlinear regression” - “log (inhibitor) vs. response (variable slope)”). Based on the obtained data, the selectivity index (SI) was calculated using the equation: SI = CC50/ IC50.

[9] = tested on: SARS-CoV-2; test: microbe, parasite or virus in culture; format: cell-based
[10] = tested on: white outbred mice; test: in vivo; format: in vivo
From the text: (§2) The toxicity of the compound was studied according to published procedure in compliance with the guidelines.
(§3) In this regard, one representative of the group, lead compound 8, was studied for acute toxicity in […] mice. White outbred mice of both sexes, weighing 25-30 g and aged 12-13 weeks, were used as biomodels. The animals were obtained from the nursery of the Federal State Unitary Enterprise «Research Institute for Hygiene, Toxicology and Occupational Pathology» of the Federal Medical and Biological Agency of Russia. The total number of animals was 20 heads. The experimental and control groups consisted of 4 animals with an equal number of males and females.
(§4) The toxic effect of the specified substance was studied using the described procedure. The substance was administered intragastrically using an atraumatic metal probe at a rate of 0.05 mL per 10 g of body weight in a dose range from 20 mg/kg to 80 mg/kg. Control animals received the solvent (99% DMSO) in the same volume in a similar way.
(§5) After the substance was administered, the animals were continuously observed for 4 hours, then periodically for 14 days, recording clinical manifestations of intoxication and the fact of death, after which lethal doses were calculated.
(§6) Dead animals were autopsied as soon as possible after death, macroscopic manifestations of the effect of the test compound were noted, and internal organs were collected for subsequent histological examination as described earlier.
(§7) Lethal doses were calculated using the probit analysis method, as described by D.J. Finney, in Microsoft Excel 2013 on the 14th day of the experiment.

[11] = in vivo; format: in vivo, mice; settings: both sexes, white outbred, mouse, in vivo, po; mice, single intragastric administration, day 14
From the text: as §2, §3, §4, §5, §6, §7

[12] = mice, single intragastric administration, day 14

Compound: c1cc2cn[nH]c2cc1-c1cn[nH]c1 [Compound 8, 6-(1H-pyrazol-4-yl)-1H-indazole]
- IC50 [1]: 6.7 ± 0.8 µM
- IC50 [2]: 4.2 ± 0.9 µM
- IC50 [3]: 9.9 ± 0.8 µM
- cytotoxicity in words [4]: significant cytotoxicity
- IC50 ([4]; SH-SY5Y, K-562, HL-60, GBM5522, read-out: IC50 range over cancer cell lines): 4 to 14 µM
- MIC ([5]; 75% inhibition of mycobacterial growth): 60 µg/mL and 326 µM
- MIC50 ([5]; 50% inhibition of mycobacterial growth, read-out: MIC 50): 40 µg/mL and 217 µM
- Δlgmax [6]: 2.0
- IC50 ([6]; H1N1, MDCK): 6 µM
- maximum reduction of the infectious titer ([6]; MDCK cell culture): 2.0 logTCID50
- SI (selectivity index) ([6]; ratio of CD50 (CC50) to IC50, MDCK): 55
- IC50 [7]: 13.8 ± 1.1 µM
- CC50 at 66 h [8]: 330 µM
- Δlgmax [9]: 0.75
- IC50 ([9]; Severe acute respiratory syndrome coronavirus 2, Vero C1008, Vero E6): > 6 µM
- Number of Animals in the Group/Number of Dead ([10]; 20 mg/kg intragastric): 4/0
- Number of Animals in the Group/Number of Dead ([10]; 40 mg/kg intragastric): 4/2
- Number of Animals in the Group/Number of Dead ([10]; 50 mg/kg intragastric): 4/3
- necropsy findings ([10]; 80 mg/kg and 50 mg/kg, dead animals): uncoagulated blood was found in the heart, pulmonary hyperemia was present, and blood was observed in the chest
- Number of Animals in the Group/Number of Dead ([10]; 80 mg/kg intragastric): 4/4
- pathomorphological examination ([10]; 80 mg/kg, male mouse): focal hemorrhages in the gastric mucosa and pronounced swelling and edema of the submucosal layer
- clinical picture of intoxication ([10]; lethal doses, first day after administration): convulsions, dysfunction of the hind limbs, increasing hypodynamia
- LD10 [10, 12]: 26,2 mg/kg
- LD16 [10, 12]: 28,8 mg/kg
- LD84 [10, 12]: 55,6 mg/kg
- LD50 [11]: 40 mg/kg
